Fold induction data for 28 molecules are collected here from patent publication US10766869B2, “Triazoles for the treatment of demyelinating dieases” (Vertex Pharmaceuticals Incorporated, priority 2015, dated 2020).

SMILES strings stand for the structures. Like-named read-outs stand apart in the source and are kept apart here.

This assay has as its system primary rat mixed cortical cells. Put plainly: In vitro myelination assay (MBP positive myelin strands, fold myelin pixels above background). The assay is classed as cell-based. The following applies: Rattus norvegicus; for fold induction at 1 µM: 1.0 μM compound; for fold induction at 10 µM: 10.0 μM compound. An outline of the steps: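 Read-out is total MBP-positive myelin strand pixels per well, detected by custom ridge-tracing software and reported as fold over untreated baseline. Primary P1 rat mixed cortical cells received compound (1.0 or 10.0 μM) for 14 days, with medium half-replaced on days 6 and 10. Standard deviation was taken across all replicates.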

Where [1] appears, read: read-out: Fold myelin pixels above background relative to baseline of no added compound.
[2] abbreviates: relative to baseline of no added compound, read-out: Fold myelin pixels above background.
Setting [3] is: relative to baseline of no added compound, read-out: Fold myelin pixels above background, 1.0 μM.
The mark [4] stands for this setting: relative to baseline of no added compound, read-out: Fold myelin pixels above background, 10.0 μM.

Take `Cc1cc(Nc2ncn(-c3cc(F)cc(F)c3)n2)cc(N2CCN(C3CCN(C)CC3)CC2)c1` [Compound 956, 1-(3,5-difluorophenyl)-N-[3-methyl-5-[4-(1-methyl-4-piperidyl)piperazin-1-yl]phenyl]-1,2,4-triazol-3-amine]: under setting [1], the fold induction at 1 µM was ≤ 1 and the fold induction at 10 µM was ≤ 1.

For the molecule `Fc1cc(F)cc(-n2cnc(Nc3cc(C(F)(F)F)cc(N4CC(N5CCOCC5)C4)n3)n2)c1` [Compound 601, N-[1-(3,5-difluorophenyl)-1,2,4-triazol-3-yl]-6-(3-morpholinoazetidin-1-yl)-4-(trifluoromethyl)pyridin-2-amine], under setting [2], the fold induction at 1 µM fell in the range of 1 to 10 and the fold induction at 10 µM is ≤ 1.

Take `Cc1cc(Nc2ncn(-c3cc(F)cc(F)c3)n2)cc(N2CCn3ccnc3C2)c1` [Compound 19, 1-(3,5-difluorophenyl)-N-[3-(6,8-dihydro-5H-imidazo[1,2-a]pyrazin-7-yl)-5-methyl-phenyl]-1,2,4-triazol-3-amine]: the fold induction at 1 µM under setting [3] is 10 to 100. For the same molecule, under setting [4], the fold induction at 10 µM was 1 to 10.

In the case of `Cc1cc(Nc2ncn(-c3cc(F)cc(F)c3)n2)c(C)c(N2CC(N3CCOCC3)C2)c1` [Compound 820, 1-(3,5-difluorophenyl)-N-[2,5-dimethyl-3-(3-morpholinoazetidin-1-yl)phenyl]-1,2,4-triazol-3-amine], under setting [1], the fold induction at 1 µM is 1 to 10 and the fold induction at 10 µM lay in the range of 10 to 100.

Take `CCc1cc(Nc2ncn(-c3ccc(C(F)(F)F)cc3)n2)cc(N2CCN(C3COC3)CC2)c1` [Compound 322, N-[3-ethyl-5-[4-(oxetan-3-yl)piperazin-1-yl]phenyl]-1-[4-(trifluoromethyl)phenyl]-1,2,4-triazol-3-amine]: under setting [3], the fold induction at 1 µM was in the range of 1 to 10. Also, the fold induction at 10 µM under setting [4] fell in the range of 1 to 10.

For `COCC1CCN(c2cc(C)cc(Nc3ncn(-c4ccncn4)n3)c2)CC1` [Compound 464, N-[3-[4-(methoxymethyl)-1-piperidyl]-5-methyl-phenyl]-1-pyrimidin-4-yl-1,2,4-triazol-3-amine], under setting [2], the fold induction at 1 µM was 10 to 100 and the fold induction at 10 µM lay within 100 to 1000.

As for `COCCN1CC(Nc2cc(C)cc(Nc3ncn(-c4cc(F)cc(F)c4)n3)c2)CC1=O` (centres unmarked) [Compound 934, 4-[3-[[1-(3,5-difluorophenyl)-1,2,4-triazol-3-yl]amino]-5-methyl-anilino]-1-(2-methoxyethyl)pyrrolidin-2-one], under setting [1], the fold induction at 1 µM was 10 to 100 and the fold induction at 10 µM was ≤ 1.

With `Cc1cc(Nc2ncn(-c3ccccc3)n2)cc(C2CCN(CC3(C)COC3)CC2)c1` [Compound 483, N-[3-methyl-5-[1-[(3-methyloxetan-3-yl)methyl]-4-piperidyl]phenyl]-1-phenyl-1,2,4-triazol-3-amine], under setting [2], the fold induction at 1 µM was ≤ 1 and the fold induction at 10 µM is ≤ 1.

Turning to `FC(F)c1cccc(-n2cnc(Nc3cc(C(F)F)cc(N4CC(N5CCOCC5)C4)n3)n2)c1` [Compound 756, 4-(difluoromethyl)-N-[1-[3-(difluoromethyl)phenyl]-1,2,4-triazol-3-yl]-6-(3-morpholinoazetidin-1-yl)pyridin-2-amine], under setting [2], the fold induction at 1 µM was in the range of 1 to 10 and the fold induction at 10 µM is 10 to 100.

On to `Cc1cc(Nc2ncn(-c3cc(F)cc(F)c3)n2)cc(N2CCOC(CN3CCN(C)CC3)C2)c1` (centres unmarked) [Compound 954, 1-(3,5-difluorophenyl)-N-[3-methyl-5-[2-[(4-methylpiperazin-1-yl)methyl]morpholin-4-yl]phenyl]-1,2,4-triazol-3-amine], for which, under setting [1], the fold induction at 1 µM was 1 to 10 and the fold induction at 10 µM is ≤ 1.

For the molecule `Cc1cc(Nc2ncn(-c3cc(F)cc(F)c3)n2)cc(N2CCC3(CC2)COC3)c1` [Compound 279, 1-(3,5-difluorophenyl)-N-[3-methyl-5-(2-oxa-7-azaspiro[3.5]nonan-7-yl)phenyl]-1,2,4-triazol-3-amine], under setting [3], the fold induction at 1 µM was in the range of 100 to 1000. Further, under setting [4], the fold induction at 10 µM was 100 to 1000.

On to `CC(C)c1cc(Nc2ncn(-c3ccncn3)n2)cc(N2CCN(C3COC3)CC2)c1` [Compound 511, N-[3-isopropyl-5-[4-(oxetan-3-yl)piperazin-1-yl]phenyl]-1-pyrimidin-4-yl-1,2,4-triazol-3-amine], for which, under setting [2], the fold induction at 1 µM was 100 to 1000 and the fold induction at 10 µM is 100 to 1000.

With `Cc1cc(Nc2ncn(-c3cccc(C(F)(F)F)c3)n2)cc(OCCN2CCOCC2)c1` [Compound 575, N-[3-methyl-5-(2-morpholinoethoxy)phenyl]-1-[3-(trifluoromethyl)phenyl]-1,2,4-triazol-3-amine], under setting [2], the fold induction at 1 µM was in the range of 10 to 100 and the fold induction at 10 µM was ≤ 1.

As to `Cc1cc(Nc2ncn(-c3ccccc3)n2)cc(O[C@@H]2CCN(C3COC3)C2)c1` [Compound 391, N-[3-methyl-5-[(3R)-1-(oxetan-3-yl)pyrrolidin-3-yl]oxy-phenyl]-1-phenyl-1,2,4-triazol-3-amine], under setting [2], the fold induction at 1 µM fell in the range of 1000 to 10000 and the fold induction at 10 µM lay within 100 to 1000.

For `COC1CCCN(c2cc(C)cc(Nc3ncn(-c4cc(F)cc(F)c4)n3)n2)C1` (centres unmarked) [Compound 764, N-[1-(3,5-difluorophenyl)-1,2,4-triazol-3-yl]-6-(3-methoxy-1-piperidyl)-4-methyl-pyridin-2-amine], under setting [2], the fold induction at 1 µM was in the range of 1 to 10 and the fold induction at 10 µM was in the range of 1 to 10.

In the case of `Cc1cc(Nc2ncn(-c3cncc(C)n3)n2)cc(N2CCN(C3CC3)CC2)c1` [Compound 420, N-[3-(4-cyclopropylpiperazin-1-yl)-5-methyl-phenyl]-1-(6-methylpyrazin-2-yl)-1,2,4-triazol-3-amine], under setting [2], the fold induction at 1 µM was 1 to 10 and the fold induction at 10 µM fell in the range of 1 to 10.

`CCc1cc(Nc2ncn(-c3ncncc3F)n2)cc(N2CCN(C3COC3)CC2)c1` [Compound 50, N-[3-ethyl-5-[4-(oxetan-3-yl)piperazin-1-yl]phenyl]-1-(5-fluoropyrimidin-4-yl)-1,2,4-triazol-3-amine]: the fold induction at 1 µM under setting [3] is ≤ 1. Also, under setting [4], the fold induction at 10 µM lay within 1000 to 10000.

Turning to `Cc1cc(Nc2ncn(-c3cnccn3)n2)cc(C2(C)CN(C)C(=O)O2)c1` (centres unmarked) [Compound 846, 3,5-dimethyl-5-[3-methyl-5-[(1-pyrazin-2-yl-1,2,4-triazol-3-yl)amino]phenyl]oxazolidin-2-one], under setting [1], the fold induction at 1 µM was in the range of 10 to 100 and the fold induction at 10 µM is 1 to 10.

With `CC1(N2CCN(c3cc(C(F)F)cc(Nc4ncn(-c5ccc(F)c(F)c5)n4)n3)CC2)COC1` [Compound 849, 4-(difluoromethyl)-N-[1-(3,4-difluorophenyl)-1,2,4-triazol-3-yl]-6-[4-(3-methyloxetan-3-yl)piperazin-1-yl]pyridin-2-amine], under setting [1], the fold induction at 1 µM lay within 10 to 100 and the fold induction at 10 µM lay within 10 to 100.

As to `Cc1cc(Nc2ncn(-c3cc(F)ccc3F)n2)cc(N2CCC(C3COC3)CC2)c1` [Compound 383, 1-(2,5-difluorophenyl)-N-[3-methyl-5-[4-(oxetan-3-yl)-1-piperidyl]phenyl]-1,2,4-triazol-3-amine], under setting [3], the fold induction at 1 µM lay in the range of 10 to 100. For the same molecule, the fold induction at 10 µM under setting [4] was in the range of 1 to 10.

In the case of `N#Cc1cc(Nc2ncn(-c3cccnc3)n2)cc(N2CCN(C3COC3)CC2)c1` [Compound 842, 3-[4-(oxetan-3-yl)piperazin-1-yl]-5-[[1-(3-pyridyl)-1,2,4-triazol-3-yl]amino]benzonitrile], under setting [1], the fold induction at 1 µM lay in the range of 1 to 10 and the fold induction at 10 µM is ≤ 1.

With `Cc1cc(N2CC(N3CCOCC3)C2)cc(Nc2ncn(-c3cc(F)cc(F)c3)n2)c1C` [Compound 739, 1-(3,5-difluorophenyl)-N-[2,3-dimethyl-5-(3-morpholinoazetidin-1-yl)phenyl]-1,2,4-triazol-3-amine], under setting [2], the fold induction at 1 µM is 10 to 100 and the fold induction at 10 µM was 10 to 100.

`Cc1cc(Nc2ncn(-c3cccc(C(F)F)c3)n2)nc(NC2CCOC2)c1` (centres unmarked) [Compound 689, N6-[1-[3-(difluoromethyl)phenyl]-1,2,4-triazol-3-yl]-4-methyl-N2-tetrahydrofuran-3-yl-pyridine-2,6-diamine]: under setting [2], the fold induction at 1 µM was in the range of 1 to 10 and the fold induction at 10 µM was 1 to 10.

Regarding `CCC1(O)CN(c2cc(C)cc(Nc3ncn(-c4cc(F)cc(F)c4)n3)c2)C1` [Compound 553, 1-[3-[[1-(3,5-difluorophenyl)-1,2,4-triazol-3-yl]amino]-5-methyl-phenyl]-3-ethyl-azetidin-3-ol], under setting [2], the fold induction at 1 µM lay within 100 to 1000 and the fold induction at 10 µM fell in the range of 10 to 100.

As to `Fc1ccc(-n2cnc(Nc3cc(C4=CCOCC4)nc(C4CC4)c3)n2)cc1F` [Compound 3, 2-cyclopropyl-N-[1-(3,4-difluorophenyl)-1,2,4-triazol-3-yl]-6-(3,6-dihydro-2H-pyran-4-yl)pyridin-4-amine], the fold induction at 1 µM under setting [3] was 100 to 1000. In addition, the fold induction at 10 µM under setting [4] was in the range of 1000 to 10000.

In the case of `Cc1cc(Nc2ncn(-c3ccc(F)cc3)n2)cc(N2CC(N3CCOCC3)C2)c1` [Compound 606, 1-(4-fluorophenyl)-N-[3-methyl-5-(3-morpholinoazetidin-1-yl)phenyl]-1,2,4-triazol-3-amine], under setting [2], the fold induction at 1 µM fell in the range of 1 to 10 and the fold induction at 10 µM was 1 to 10.

`Cc1cc(Nc2ncn(-c3ccccc3)n2)cc(Nc2ncco2)c1` [Compound 838, 5-methyl-N1-oxazol-2-yl-N3-(1-phenyl-1,2,4-triazol-3-yl)benzene-1,3-diamine]: under setting [1], the fold induction at 1 µM is ≤ 1 and the fold induction at 10 µM is ≤ 1.

On to `Cc1cc(Nc2ncn(-c3cc(F)cc(F)c3)n2)cc(C2CCNCC2O)c1` (centres unmarked) [Compound 438, 4-[3-[[1-(3,5-difluorophenyl)-1,2,4-triazol-3-yl]amino]-5-methyl-phenyl]piperidin-3-ol], for which, under setting [2], the fold induction at 1 µM is 10 to 100 and the fold induction at 10 µM was ≤ 1.
